Measurements reported in patent US20040219202A1, “Pharmaceutical composition comprising lipids comprising a polar and a nonpolar moiety” (priority 2001, published 2004).
“Also recorded” adds a separate entry of the source.

Key:
Format in all cases: cell-based
Panc-1 cells = experiment: Transfection of Panc-1 cells with LMDs (liposome:mu:DNA), β-galactosidase reporter assay; conditions: LMDs composed entirely of DOTAP or DOTAP-analogue liposomes, FIG. 19
Method: (§1) Purity of the lipids was checked by TLC or HPLC. All lipids were stored as stock solutions in anhydrous CH2Cl2, at concentrations of either 5 mg/ml or 10 mg/ml, at −80° C., under Ar. In order to prepare cationic liposomes, lipids were added to a round-bottomed flask, via syringe, under Ar, and further freshly distilled CH2Cl2 was added, if necessary, to give a concentration of around 2.5 mg/ml. Then, 4 mM HEPES pH 7.0 (1 ml) was added, and the biphasic system was swirled to mix. A liposomal suspension was created by removing the organic solvent under reduced pressure at 25° C., followed by sonication for 2-5 min. in a water bath sonicator. Doubly-distilled water was added, if necessary, to return the total volume to 1 ml. All liposomal solutions were prepared at a final concentration of 5 mg/ml. The pH of the liposomal suspension was checked by pH Boy (Camlab Ltd., Over, Cambridgeshire, UK) and adjusted to pH 7.0±0.1 with concentrated aqueous solutions of HCl and NaOH.
(§2) Liposomes were extruded (Extruder, Northern Upids, Inc., Vancouver, BC, Canada) by passing through two 100 nm polycarbonate filters (Isopore™ Membrane Filters, Millipore (UK) Ltd., Watford, Hertfordshire, UK) ten times. For each preparation, the size distribution of liposomes was measured by photon correlation spectroscopy (PCS) (Coulter® N4 Plus Submicron Particle Sizer, Beckman Coulter, High Wycombe, Buckinghamshire, UK). For phospholipid-containing liposomes, phospholipid concentrations were checked by the Stewart assay.^23 In each case, a final lipid concentration of 4.7±0.1 mg/ml was observed. For non-phospholipid containing liposomes, lipid loss was also inevitable on extrusion. For all fast-extruding liposomal suspensions, total lipid concentration was assumed to be 4.7 mg/ml. For slower extrusions, total lipid concentrations were assumed to be 4.3 mg/ml. Very slowly extruding liposomes were extruded three times only and assumed to be 4.7 mg/ml.
(§3) Plasmid DNA containing the β-galactosidase gene (pNGVL1-nt-beta-gal; 7.53 kbp) was stored as frozen aliquots at −80° C., at a concentration of 1.2 mg/ml; μ (mu) peptide (adenoviral core peptide [H2N-Met-Arg-Arg-Ala-His-His-Arg-Arg-Arg-Arg-Ala-Ser-His-Arg-Arg-Met-Arg-Gly-Gly-CO2H]) was synthesised as described previously,^7 and maintained at 4° C. in aliquots of 1 mg/ml. Mu-DNA complexes were made by adding plasmid DNA to mu in 4 mM HEPES at a ratio of 1:0.6 (w/w) with fast vortexing. LMDs were prepared by complexing mu-DNA particles with cationic liposomes (as prepared above) in a ratio of 1:12 (w/w), such that all LMDs for all formulations were substantially cationic. For each preparation, the size distribution of LMDs was measured by PCS.
Panc-1 cells were maintained in RPMI/10% FCS/1% penicillin-streptomycin (Gibco™, Invitrogen Corporation, Paisley, Scotland, UK) at 37° C./5% CO2 in a humidified atmosphere. Twenty-four hours prior to transfection, 30 000 cells per well were seeded in 48 well microtitre plates (Corning Costar, Merck Ltd., Lutterworth, Leicestershire, UK) in 500 μl medium. As a control, plasmid DNA (0.5 μg in 200 μl medium) was added to a well. As a positive control, 1.5 μl Transfast™ (Promega Corporation, Madison, Wis., USA; prepared according to the supplier's protocol) in 200 μl medium was complexed with plasmid DNA (0.5 μg) and added to a well. 5 μl (0.5 μg DNA) of LMD formulation was added to each well. All experiments were performed in quadruplicate. The plate was swirled for 30 s, and incubated for 1 h at 37° C. Medium was then removed, and 500 μl of fresh medium was added. The cells were incubated at 37° C. for a further 24 h.
Medium was aspirated from the wells and the cell layer was washed with phosphate buffered saline (PBS) (Gibco™). The cells of each well were lysed in 150 μl lysis reagent (prepared according to the supplier's protocol; β-Gal Reporter Gene Assay, Roche Diagnostics GmbH, D-68305 Mannheim, Germany) at room temperature for 30 min. […]

COS-7 cells = experiment: Transfection of COS-7 cells with LMDs (liposome:mu:DNA), β-galactosidase reporter assay; conditions: LMDs of pure DOTAP or DOTAP-analogue liposomes, FIG. 20
Method: as §1, §2, §3
COS-7 cells were maintained in DMEM/10% FCS/1% penicillin-streptomycin (Gibco™) at 37° C./5% CO2 in a humidified atmosphere. Twenty-four hours prior to transfection, 10 000 cells per well were seeded in 48-well microtitre plates (Coming Costar) in 500 μl medium. Plasmid DNA and Transfast™ controls were prepared as above. 5 μl (0.5 μg DNA) of LMD formulation was added to each well. All experiments were performed in quadruplicate. The plate was swirled for 30 s, and incubated for 1 h at 37° C. Medium was then removed, and 500 μl of fresh medium was added. The cells were incubated at 37° C. for a further 24 h.
Medium was aspirated from the wells and the cell layer was washed with phosphate buffered saline (PBS) (Gibco™). The cells of each well were lysed in 150 μl lysis reagent (prepared according to the supplier's protocol; β-Gal Reporter Gene Assay, Roche Diagnostics GmbH, D-68305 Mannheim, Germany) at room temperature for 30 min. After lysis, […], 50 μl and 20 μl, of each cell suspension were used for the determination of β-galactosidase activity and for the determination of total cellular protein (to normalise results), respectively.
In the β-gal assay, 100 μl of the substrate reagent was added to 50 μl of the cell suspension in a white 96-well microplate (Coming Costar). […]

Panc-1 and COS-7 cells = experiment: In vitro transfection of LMDs, overall statements without a single cell line; conditions: cell line not stated or across Panc-1 and COS-7 cells
Method: as §1, with “The pH of the liposomal suspension was checked by pH Boy (Camlab Ltd., Over, Cambridgeshire, UK) and adjusted to pH 7.0±0.1 with concentrated aqueous solutions of HCl and NaOH.” left out
Liposomes were extruded (Extruder, Northern Upids, Inc., Vancouver, BC, Canada) by passing through two 100 nm polycarbonate filters (Isopore™ Membrane Filters, Millipore (UK) Ltd., Watford, Hertfordshire, UK) ten times. For each preparation, the size distribution of liposomes was measured by photon correlation spectroscopy (PCS) (Coulter® N4 Plus Submicron Particle Sizer, Beckman Coulter, High Wycombe, Buckinghamshire, UK). […]

CCCCCCCC/C=C\CCCCCCCC(=O)OCC(C[N+](C)(C)C)OC(=O)CCCCCCC/C=C\CCCCCCCC (stereo not drawn) [DOTAP]
Transfection (β-galactosidase activity) (Panc-1 cells): transfect less well than the positive control Transfast
Transfection (β-galactosidase activity) (COS-7 cells): transfect similarly
In vitro transfection, overall statement (Panc-1 and COS-7 cells): transfect worse than CDAN:DOPE, 1:1 liposomes; also recorded: generally poor
